Source: patent publication US20210161188A1, “POLYMETHOXYFLAVONES AS SWEETNESS ENHANCERS” (Firmenich SA, priority 2018, published 2021)

Columns and labels:
Format in all cases: in vivo, human
[1] = tested on: sweetness of a reference water solution containing 4% sucrose (sucrose base); test: Sensory panel of 25 trained panelists, sweet taste modifying effect in 4% sucrose, with nose-clip; conditions: for enhancement of the sweetness of the sucrose base (in words): 5 ppm; for sweetness, With nose-clip (NC) / Significant level Student test (NC): 5 ppm in 4% sucrose; for sweetness, With nose-clip (NC): scale of −5 (strong masking) to 5 (strong enhancing), 0 = sucrose base; for Significant level Student test (NC): sweetness, with nose-clip
Text: (§1) The taste of a sample of a composition according to several aspects presented herein, with regard to sweetness and/or sweetness enhancing properties, may be assessed in vivo by using a panel of trained sensory evaluators experienced in the sweet taste estimation procedure, e.g. in the sensory assay described e.g. in Examples 1 and 2, using a test base comprising a 4% sucrose solution, or similar composition.
(§2) In sensory studies, panelists are asked to take a sample of the liquid to be assessed (test substance, e.g. the test base comprising a composition according to several aspects presented herein) into the mouth and after some time allowed for taste perception, to spit the sample out completely. Subsequently, the panelists are asked to rinse their mouth well with water or black tea to reduce any potential carry over effects. The tasting of a sample can be repeated if required.
Sensory Evaluations: A sensory panel consisted of 25 trained panelists. The panelists were asked to evaluate the sweet taste modifying effect of the isolated individual polymethoxyflavones in a reference water solution containing 4% sucrose. The panelists evaluated samples containing TMS, HMQ, NOB, HMF, TAN and SIN (all at 5 ppm), and a mixture comprising a mixture of polymethoxyflavones (PMF mixture at 10 ppm), for taste properties (sweet) on a scale of −5 to 5 (−5 denoted strong masking effect and 5 denoted strong enhancing effect, 0 being the intensity of a reference water solution containing 4% sucrose—referred to herein as the sucrose base).

[2] = tested on: sweetness of a reference water solution containing 4% sucrose (sucrose base); test: Additional sensory evaluation, 8 trained panelists, dose series in 4% sucrose
Text: as §1, §2
Additional Sensory Evaluations: A sensory panel consisted of 8 trained panelists. The panelists were asked to evaluate the sweet taste modifying effect of 0.001, 0.1, 1, 2, and 20 ppm of either TMS, HMQ, or NOB in a reference water solution containing 4% sucrose, on a scale of −5 to 5 (−5 denoted strong masking effect and 5 denoted strong enhancing effect, 0 being the intensity of a reference water solution containing 4% sucrose—referred to herein as the sucrose base).

[3] = tested on: sweetness of a reference water solution containing 4% sucrose; test: Additional sensory evaluation, 8 trained panelists, TMS, HMQ and TMS:HMQ mixtures in different ratio; conditions: for significance of sweetness enhancement: Low sugar beverage (4% sucrose)
Text: as §1, §2
A sensory panel consisted of 8 trained panelists. The panelists were asked to evaluate the sweet taste modifying effect of 0.5, 1, 2 ppm of either TMS or HMQ as well as 1, 1.5, 2 ppm of TMS and HMQ mixture in different ratio in a reference water solution containing 4% sucrose.

[4] = tested on: sweetness of reduce sugar fruit tea beverage; test: Additional sensory evaluation, 8 trained panelists, fruit tea beverage; set-up: significance of sweetness enhancement: key to the marks not given beside the values
Text: as §1, §2
Additional Sensory Evaluations: A sensory panel consisted of 8 trained panelists. The panelists were asked to evaluate the sweet taste modifying effect of 0.001, 2 and 20 ppm of PMF mixture and 0.2 ppm of TMS, 0.1 ppm of HMQ, and 0.3 ppm of the mixture of TMS and HMQ at ratio of 2 to 1 in a reference low sugar fruit tea beverage solution as well as standard sugar fruit tea beverage solution.

[5] = at 0.1 and 0.001 ppm in 4% sucrose
[6] = at doses less than or equal to 2 ppm in 4% sucrose

| SMILES | enhancement of the sweetness of the sucrose base (in words) [1] | sweetness, With nose-clip (NC) [1] | significance of sweetness enhancement ([2]; 0.001 ppm in 4% sucrose) | sweetness enhancing properties (in words) ([2]; 0.001 to 20 ppm in 4% sucrose, in contrast to TMS and HMQ) | significance of sweetness enhancement ([2]; 1 ppm in 4% sucrose) | significance of sweetness enhancement ([2]; 20 ppm in 4% sucrose) | Significant level Student test (NC) [1] | significance of sweetness enhancement ([2]; 0.1 ppm in 4% sucrose) | significance of sweetness enhancement ([2]; 2 ppm in 4% sucrose) | sweetness enhancement effect (in words) [2, 5] | sweetness enhancement effect (in words) [2, 6] | significance of sweetness enhancement ([3]; 1 ppm) | significance of sweetness enhancement ([3]; 2 ppm) | significance of sweetness enhancement ([4]; +0.2 ppm in reduce sugar fruit tea beverage) | significance of sweetness enhancement ([3]; 0.5 ppm) | sweetness enhancement effect (in words) ([3]; 1 ppm) | sweetness enhancement effect (in words) ([4]; 0.1 ppm in reduce sugar fruit tea beverage) |
| --- | --- | --- | --- | --- | --- | --- | --- | --- | --- | --- | --- | --- | --- | --- | --- | --- | --- |
| COc1ccc(-c2cc(=O)c3c(OC)c(OC)c(OC)cc3o2)cc1OC [SIN, 5,6,7,3′,4′-pentamethoxyflavone] | Neither HMF, nor SIN had any observable enhancement of sweetness | 0.17 |  |  |  |  |  |  |  |  |  |  |  |  |  |  |  |
| COc1ccc(-c2cc(=O)c3c(OC)c(OC)c(OC)c(OC)c3o2)cc1OC [NOB, 5,6,7,8,3′,4′-hexamethoxyflavone, reference compound] | significantly enhance the sweetness of the sucrose base | 0.37 | ++ | less significant | ++ | ++ | ++ |  |  |  |  |  |  |  |  |  |  |
| COc1ccc(-c2cc(=O)c3c(OC)c(OC)c(OC)cc3o2)cc1 [TMS, 5,6,7,4′-tetramethoxyflavone] | significantly enhance the sweetness of the sucrose base | 0.55 | ++ |  | ++ |  | ++ | ++ | + | significant sweetness enhancement effect | better sweetness enhancement effect | ++ | + | ++ |  |  |  |
| COc1ccc(-c2cc(=O)c3c(OC)c(OC)c(OC)c(OC)c3o2)cc1 [TAN, 5,6,7,8,4′-pentamethoxyflavone] | negative effect of sweetness | −0.30 |  |  |  |  | − |  |  |  |  |  |  |  |  |  |  |
| COc1ccc(-c2oc3c(OC)c(OC)c(OC)c(OC)c3c(=O)c2OC)cc1OC [HMF, 3,5,6,7,8,3′,4′-heptamethoxyflavone] | Neither HMF, nor SIN had any observable enhancement of sweetness | 0.21 |  |  |  |  |  |  |  |  |  |  |  |  |  |  |  |
| COc1ccc(-c2oc3cc(OC)c(OC)c(OC)c3c(=O)c2OC)cc1OC [HMQ, 3,5,6,7,3′,4′-hexamethoxyflavone] | significantly enhance the sweetness of the sucrose base | 0.57 | +++ |  |  |  | ++ | ++ | ++ | significant sweetness enhancement effect | better sweetness enhancement effect |  | ++ |  | ++ | did not show any observable sweetness enhancement effect | did not show the sweetness enhancement effect |
